The values that follow come from ChEMBL document CHEMBL1158014, “Calamistrins A and B, two new cytotoxic monotetrahydrofuran annonaceous acetogenins from Uvaria calamistrata” (J Nat Prod, 1999).

In brackets after ≈: the same amount, converted by molar mass.

Holding throughout (type): functional, cell-based
Experiment [1] has as its system KB. Briefly: Cytotoxicity against human KB cells after 5 days by MTT assay. The note with it: 120 h.
For experiment [2], the system named is A2780. In words: Cytotoxicity against human A2780 cells after 5 days by MTT assay. Conditions: A2780, 120 h.
The subject of experiment [3] is HCT-8. In words: Cytotoxicity against human HCT8 cells after 5 days by MTT assay. The note with it: HCT-8, 120 h.

On to `CCCCCCCCCCCC[C@H](O)[C@H]1CC[C@H]([C@H](O)C[C@@H](O)CCCCCCCCCCCCC2=C[C@H](C)OC2=O)O1` [CALAMISTRIN A], for which the results for the IC50 in experiment [1], in experiment [2] and in experiment [3] were 2 µg/mL (≈ 3.28 µM), 1.4 µg/mL (≈ 2.3 µM) and 0.37 µg/mL (≈ 0.608 µM), respectively.

In the case of `CCCCCCCCCCCC[C@H](O)[C@H]1CC[C@H]([C@@H](C[C@H](O)CCCCCCCCCCCCC2=C[C@H](C)OC2=O)OC(C)=O)O1` [CALAMISTRIN B], the IC50 in experiment [1] is 6.1 µg/mL (≈ 9.37 µM); in experiment [2], 3.1 µg/mL (≈ 4.76 µM); in experiment [3] it was 0.022 µg/mL (≈ 0.0338 µM).
